The results in this text go back to patent US11208412B2 (DAEGU-GYEONGBUK MEDICAL INNOVATION FOUNDATION, priority 2017, dated 2021).

Holding throughout (test): Kinase selectivity, DiscoverX scanMAX Kinase assay panel (% control)
Common to all, as to format: binding

The target of assay [1] is T1, kinases of the scanMAX Kinase assay panel (Homo sapiens, UniProt Q13177).
T1 construct: purchased DiscoverX Co. (contract measurement) scanMAX Kinase assay panel
The following applies: PAK2; 1 uM. In a few lines:
(§1)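 A 1 uM DMSO solution of compound was applied across the panel kinases, and results were expressed as % control relative to DMSO (100%) and a positive control (0%).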

Assay [2] deals with T2, kinases of the scanMAX Kinase assay panel (Homo sapiens, UniProt Q8IY84).
T2 construct: purchased DiscoverX Co. (contract measurement) scanMAX Kinase assay panel
Particulars: NIM1; 1 uM. In a few lines:
as §1

Assay [3] concerns the target T3, kinases of the scanMAX Kinase assay panel (Homo sapiens, UniProt Q13470).
T3 construct: purchased DiscoverX Co. (contract measurement) scanMAX Kinase assay panel
T3 sequence (Q13470 1-666): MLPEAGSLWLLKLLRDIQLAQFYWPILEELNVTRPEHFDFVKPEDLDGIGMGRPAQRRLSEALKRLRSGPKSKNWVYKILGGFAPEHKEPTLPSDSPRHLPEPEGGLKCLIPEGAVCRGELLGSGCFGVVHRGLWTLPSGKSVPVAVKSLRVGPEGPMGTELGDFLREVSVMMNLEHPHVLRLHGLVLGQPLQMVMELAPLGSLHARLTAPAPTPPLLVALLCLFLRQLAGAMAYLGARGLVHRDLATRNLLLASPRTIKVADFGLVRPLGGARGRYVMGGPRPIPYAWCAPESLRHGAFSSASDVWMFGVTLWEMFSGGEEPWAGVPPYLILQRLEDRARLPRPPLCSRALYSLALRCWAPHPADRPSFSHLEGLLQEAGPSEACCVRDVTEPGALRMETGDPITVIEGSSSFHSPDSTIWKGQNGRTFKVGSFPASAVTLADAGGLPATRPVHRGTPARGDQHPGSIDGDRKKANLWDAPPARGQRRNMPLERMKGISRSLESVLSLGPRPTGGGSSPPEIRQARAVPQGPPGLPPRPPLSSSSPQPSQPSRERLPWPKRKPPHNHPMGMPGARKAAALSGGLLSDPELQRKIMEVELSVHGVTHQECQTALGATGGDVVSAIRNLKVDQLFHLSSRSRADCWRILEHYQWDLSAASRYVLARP
The following applies: kinase TNK1; 1 uM in DMSO. Summed up:
as §1

Assay [4] addresses T4, kinases of the scanMAX Kinase assay panel (Homo sapiens, UniProt Q9HBH9).
T4 construct: purchased DiscoverX Co. (contract measurement) scanMAX Kinase assay panel
The following applies: MKNK2; 1 uM. In a few lines:
as §1

Assay [5] addresses T5, kinases of the scanMAX Kinase assay panel (Homo sapiens, UniProt P27361).
T5 construct: purchased DiscoverX Co. (contract measurement) scanMAX Kinase assay panel
Particulars: ERK1; 1 uM. In a few lines: as §1

For assay [6], the target named is T6, kinases of the scanMAX Kinase assay panel (Homo sapiens, UniProt Q86UX6).
T6 construct: purchased DiscoverX Co. (contract measurement) scanMAX Kinase assay panel
Particulars: kinase YANK3; 1 uM in DMSO. In a few lines:
as §1

Assay [7] concerns the target T7, kinases of the scanMAX Kinase assay panel (Homo sapiens, UniProt P10721, D816V).
T7 construct: purchased DiscoverX Co. (contract measurement) scanMAX Kinase assay panel
The following applies: KIT(D816V); 1 uM. In a few lines:
as §1

For assay [8], the target named is T8, kinases of the scanMAX Kinase assay panel (Homo sapiens, UniProt Q9H2K8).
T8 construct: purchased DiscoverX Co. (contract measurement) scanMAX Kinase assay panel
T8 sequence (Q9H2K8 1-898): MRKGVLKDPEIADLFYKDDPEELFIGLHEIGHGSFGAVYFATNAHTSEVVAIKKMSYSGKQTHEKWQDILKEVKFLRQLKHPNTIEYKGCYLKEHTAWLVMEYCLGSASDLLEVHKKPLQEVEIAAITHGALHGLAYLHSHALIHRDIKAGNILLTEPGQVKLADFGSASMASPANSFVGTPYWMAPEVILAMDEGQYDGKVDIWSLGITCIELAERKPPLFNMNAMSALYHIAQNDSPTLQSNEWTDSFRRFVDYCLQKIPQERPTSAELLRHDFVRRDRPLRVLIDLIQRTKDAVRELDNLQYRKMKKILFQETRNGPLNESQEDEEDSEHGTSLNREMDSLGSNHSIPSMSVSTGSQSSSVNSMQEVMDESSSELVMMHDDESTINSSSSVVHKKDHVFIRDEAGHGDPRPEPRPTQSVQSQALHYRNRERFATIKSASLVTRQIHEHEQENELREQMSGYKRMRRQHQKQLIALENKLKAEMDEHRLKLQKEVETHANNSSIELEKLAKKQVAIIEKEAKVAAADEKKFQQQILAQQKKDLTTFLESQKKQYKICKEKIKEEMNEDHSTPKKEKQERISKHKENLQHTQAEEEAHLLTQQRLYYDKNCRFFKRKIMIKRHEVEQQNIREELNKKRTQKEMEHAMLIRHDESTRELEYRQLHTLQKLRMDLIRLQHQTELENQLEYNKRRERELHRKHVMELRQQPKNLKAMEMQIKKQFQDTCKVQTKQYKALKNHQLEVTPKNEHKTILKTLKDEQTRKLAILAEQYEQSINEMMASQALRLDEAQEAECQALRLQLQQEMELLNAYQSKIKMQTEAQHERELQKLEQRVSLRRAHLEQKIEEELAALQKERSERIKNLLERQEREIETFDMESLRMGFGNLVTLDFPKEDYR
Particulars: kinase TAOK3; 1 uM in DMSO. In a few lines:
as §1

Assay [9] addresses T9, kinases of the scanMAX Kinase assay panel (Homo sapiens, UniProt P00519, T315I).
T9 construct: purchased DiscoverX Co. (contract measurement) scanMAX Kinase assay panel
The following applies: 1 uM. In a few lines: as §1

For assay [10], the target named is T10, kinases of the scanMAX Kinase assay panel (Homo sapiens, UniProt P10721, L576P).
T10 construct: purchased DiscoverX Co. (contract measurement) scanMAX Kinase assay panel
The following applies: KIT(L576P); 1 uM. Summed up: as §1

Assay [11] has as its target T11, kinases of the scanMAX Kinase assay panel (Homo sapiens, UniProt P42336, H1047Y).
T11 construct: purchased DiscoverX Co. (contract measurement) scanMAX Kinase assay panel
The following applies: PIK3CA(H1047Y); 1 uM. In a few lines: as §1

Assay [12] addresses T12, kinases of the scanMAX Kinase assay panel (Homo sapiens, UniProt Q96GD4).
T12 construct: purchased DiscoverX Co. (contract measurement) scanMAX Kinase assay panel
The following applies: AURKB; 1 uM. Summed up: as §1

Assay [13] has as its target T13, kinases of the scanMAX Kinase assay panel (Homo sapiens, UniProt P31152).
T13 construct: purchased DiscoverX Co. (contract measurement) scanMAX Kinase assay panel
Particulars: ERK4; 1 uM. In a few lines:
as §1

Each structure is given as a SMILES string.

T10 sequence (P10721 26-976 L576P): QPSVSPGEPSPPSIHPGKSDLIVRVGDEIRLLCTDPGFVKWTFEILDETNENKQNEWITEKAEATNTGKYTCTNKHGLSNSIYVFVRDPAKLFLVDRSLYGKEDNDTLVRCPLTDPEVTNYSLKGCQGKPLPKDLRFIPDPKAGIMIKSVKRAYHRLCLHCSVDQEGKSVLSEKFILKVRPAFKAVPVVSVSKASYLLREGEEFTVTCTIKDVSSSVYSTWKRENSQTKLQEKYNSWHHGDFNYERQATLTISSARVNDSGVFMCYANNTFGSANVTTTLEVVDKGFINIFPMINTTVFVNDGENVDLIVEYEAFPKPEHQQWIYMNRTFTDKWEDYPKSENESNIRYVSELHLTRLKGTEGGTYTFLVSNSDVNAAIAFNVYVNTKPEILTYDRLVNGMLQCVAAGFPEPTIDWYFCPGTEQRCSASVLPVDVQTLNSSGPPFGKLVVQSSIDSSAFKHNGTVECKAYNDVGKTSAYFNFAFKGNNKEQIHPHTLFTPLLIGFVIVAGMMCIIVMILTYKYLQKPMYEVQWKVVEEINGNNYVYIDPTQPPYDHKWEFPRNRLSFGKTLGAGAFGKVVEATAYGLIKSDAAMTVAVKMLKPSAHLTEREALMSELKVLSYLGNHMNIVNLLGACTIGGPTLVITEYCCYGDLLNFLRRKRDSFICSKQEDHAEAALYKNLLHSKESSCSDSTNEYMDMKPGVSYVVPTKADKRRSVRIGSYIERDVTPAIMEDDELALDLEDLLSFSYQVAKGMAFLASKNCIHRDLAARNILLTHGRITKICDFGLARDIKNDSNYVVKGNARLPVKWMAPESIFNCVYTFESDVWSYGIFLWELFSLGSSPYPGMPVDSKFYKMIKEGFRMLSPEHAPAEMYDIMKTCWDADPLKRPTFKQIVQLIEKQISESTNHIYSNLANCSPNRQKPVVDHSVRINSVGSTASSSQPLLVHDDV
T5 sequence (P27361 whole entry): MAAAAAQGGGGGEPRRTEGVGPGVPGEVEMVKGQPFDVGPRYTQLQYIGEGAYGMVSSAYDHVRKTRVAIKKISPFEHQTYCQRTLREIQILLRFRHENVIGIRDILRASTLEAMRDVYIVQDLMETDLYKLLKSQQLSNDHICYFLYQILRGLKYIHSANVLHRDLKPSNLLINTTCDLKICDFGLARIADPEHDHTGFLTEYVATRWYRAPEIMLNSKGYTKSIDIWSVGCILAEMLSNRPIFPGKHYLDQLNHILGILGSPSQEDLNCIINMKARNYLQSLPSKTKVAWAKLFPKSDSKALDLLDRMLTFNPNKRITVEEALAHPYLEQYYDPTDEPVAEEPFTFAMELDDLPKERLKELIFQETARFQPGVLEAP
T12 sequence (Q96GD4 whole entry): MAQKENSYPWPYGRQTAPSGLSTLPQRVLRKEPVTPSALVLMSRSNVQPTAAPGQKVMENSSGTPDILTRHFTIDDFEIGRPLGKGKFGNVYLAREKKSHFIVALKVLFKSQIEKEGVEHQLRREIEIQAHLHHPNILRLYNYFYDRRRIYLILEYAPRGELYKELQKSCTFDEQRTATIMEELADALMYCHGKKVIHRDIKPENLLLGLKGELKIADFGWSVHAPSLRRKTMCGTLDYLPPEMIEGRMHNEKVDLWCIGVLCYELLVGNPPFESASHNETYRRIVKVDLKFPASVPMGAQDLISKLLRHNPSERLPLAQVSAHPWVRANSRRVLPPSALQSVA
T13 sequence (P31152 whole entry): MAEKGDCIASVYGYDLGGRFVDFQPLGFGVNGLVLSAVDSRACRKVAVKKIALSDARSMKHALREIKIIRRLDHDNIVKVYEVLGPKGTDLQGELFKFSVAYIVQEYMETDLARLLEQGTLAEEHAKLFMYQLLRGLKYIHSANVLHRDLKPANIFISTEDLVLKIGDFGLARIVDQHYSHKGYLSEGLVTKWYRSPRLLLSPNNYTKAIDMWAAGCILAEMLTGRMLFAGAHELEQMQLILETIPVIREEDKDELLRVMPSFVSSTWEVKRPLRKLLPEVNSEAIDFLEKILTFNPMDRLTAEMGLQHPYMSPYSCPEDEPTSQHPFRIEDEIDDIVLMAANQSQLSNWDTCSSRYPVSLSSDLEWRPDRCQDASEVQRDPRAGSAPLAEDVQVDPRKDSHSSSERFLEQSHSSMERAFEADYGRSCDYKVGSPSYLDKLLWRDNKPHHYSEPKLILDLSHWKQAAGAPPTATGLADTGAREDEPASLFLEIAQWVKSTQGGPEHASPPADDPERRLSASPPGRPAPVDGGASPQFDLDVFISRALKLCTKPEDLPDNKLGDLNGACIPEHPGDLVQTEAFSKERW
T4 sequence (Q9HBH9 whole entry): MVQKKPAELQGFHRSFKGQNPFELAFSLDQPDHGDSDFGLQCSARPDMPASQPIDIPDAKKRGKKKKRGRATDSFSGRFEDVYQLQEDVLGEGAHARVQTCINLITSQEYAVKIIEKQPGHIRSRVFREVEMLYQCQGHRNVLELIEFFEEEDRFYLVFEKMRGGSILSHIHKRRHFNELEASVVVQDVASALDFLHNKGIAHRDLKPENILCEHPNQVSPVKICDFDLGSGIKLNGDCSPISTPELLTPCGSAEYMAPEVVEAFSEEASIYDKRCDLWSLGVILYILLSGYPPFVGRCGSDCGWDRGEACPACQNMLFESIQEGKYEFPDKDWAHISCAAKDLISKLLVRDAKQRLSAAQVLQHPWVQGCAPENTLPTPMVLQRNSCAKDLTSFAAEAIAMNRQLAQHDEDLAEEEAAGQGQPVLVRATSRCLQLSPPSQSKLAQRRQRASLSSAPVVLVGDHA
T7 sequence (P10721 26-976 D816V): as the sequence (P10721 26-976 L576P) above, with P551L, D791V counted along it
T1 sequence (Q13177 whole entry): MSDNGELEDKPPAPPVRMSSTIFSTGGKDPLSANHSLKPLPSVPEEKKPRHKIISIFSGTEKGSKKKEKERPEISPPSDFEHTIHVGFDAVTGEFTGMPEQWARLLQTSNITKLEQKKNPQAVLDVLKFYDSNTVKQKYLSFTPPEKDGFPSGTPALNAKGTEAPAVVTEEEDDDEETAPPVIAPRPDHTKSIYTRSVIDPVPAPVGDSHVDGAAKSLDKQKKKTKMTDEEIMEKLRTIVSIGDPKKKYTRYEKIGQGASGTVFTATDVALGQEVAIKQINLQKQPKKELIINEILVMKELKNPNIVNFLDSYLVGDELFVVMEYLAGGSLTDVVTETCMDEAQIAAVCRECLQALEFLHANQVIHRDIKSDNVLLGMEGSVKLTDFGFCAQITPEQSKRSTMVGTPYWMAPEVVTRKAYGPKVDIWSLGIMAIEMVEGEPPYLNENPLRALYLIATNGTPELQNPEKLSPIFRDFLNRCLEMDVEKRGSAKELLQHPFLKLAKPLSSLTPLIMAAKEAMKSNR
T6 sequence (Q86UX6 whole entry): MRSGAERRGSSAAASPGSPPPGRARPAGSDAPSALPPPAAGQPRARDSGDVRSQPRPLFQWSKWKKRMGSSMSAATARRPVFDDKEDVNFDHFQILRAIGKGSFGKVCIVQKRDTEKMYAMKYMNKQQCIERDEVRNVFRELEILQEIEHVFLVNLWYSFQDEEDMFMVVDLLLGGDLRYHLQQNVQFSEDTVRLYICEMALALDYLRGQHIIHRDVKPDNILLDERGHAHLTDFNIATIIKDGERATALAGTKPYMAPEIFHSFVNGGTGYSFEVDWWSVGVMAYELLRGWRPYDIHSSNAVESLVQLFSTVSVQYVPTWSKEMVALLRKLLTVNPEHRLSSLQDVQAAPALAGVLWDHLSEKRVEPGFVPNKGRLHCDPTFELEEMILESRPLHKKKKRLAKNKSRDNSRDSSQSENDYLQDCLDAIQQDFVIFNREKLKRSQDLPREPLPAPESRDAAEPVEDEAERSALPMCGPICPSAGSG
T2 sequence (Q8IY84 whole entry): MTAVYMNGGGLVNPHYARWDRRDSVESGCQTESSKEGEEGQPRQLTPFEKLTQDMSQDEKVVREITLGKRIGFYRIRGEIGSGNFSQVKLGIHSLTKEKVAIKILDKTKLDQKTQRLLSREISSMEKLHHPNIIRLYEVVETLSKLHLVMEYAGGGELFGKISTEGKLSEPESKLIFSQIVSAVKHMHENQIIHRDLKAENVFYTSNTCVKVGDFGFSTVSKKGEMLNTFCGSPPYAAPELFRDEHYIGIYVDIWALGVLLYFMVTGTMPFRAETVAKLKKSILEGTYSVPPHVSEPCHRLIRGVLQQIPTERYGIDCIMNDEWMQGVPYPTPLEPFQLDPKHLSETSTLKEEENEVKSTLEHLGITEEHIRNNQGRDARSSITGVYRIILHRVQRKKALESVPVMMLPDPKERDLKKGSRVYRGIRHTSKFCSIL

As for `CNc1nc(Nc2ccc(C(=O)N3CCOCC3)cc2OC)nc2[nH]cc(C#N)c12` [Example 1, 2-((2-methoxy-4-(morpholine-4-carbonyl)phenyl)amino)-4-(methylamino)-7H-pyrrolo[2,3-d]pyrimidine-5-carbonitrile], the remaining binding at 1 µM in assay [1] came to 95%; in assay [2] it was 77%; in [3] it was 85%; in assay [4], 31%; in assay [5], 88%; in assay [6] it was 100%. Besides, the remaining binding at 1 µM in [7] came to 89%; in [8], 81%; in assay [9] (ABL1(T315I)-nonphosphorylated) it was 83%; in assay [9] (ABL1(T315I)-phosphorylated) it was 59%; in assay [10], 41%; in [11] it was 100%. Besides, the figures for the remaining binding at 1 µM in [12] and in [13] were 73% and 95%, respectively.

On to `CC1(Nc2nc(Nc3cnn([C@H]4CCN(C5COC5)C[C@@H]4F)c3Cl)nc3[nH]cc(C#N)c23)CC1` [Example 52, 2-((5-chloro-1-((3S,4S)-3-fluoro-1-(oxetane-3-yl)piperidine-4-yl)-1H-pyrazole-4-yl)amino)((1-methylcyclopropyl)amino)-7H-pyrrolo[2,3-d]pyrimidine-5-carbonitrile], for which the remaining binding at 1 µM in assay [1] is 45%; in assay [2], 100%; in assay [3], 18%; in assay [4], 5.5%; in assay [5], 42%; in [6], 100%. Also, the remaining binding at 1 µM is 0.15% in assay [7]; 8.6% in [8]; 0% in assay [9] (ABL1(T315I)-nonphosphorylated); 0.05% in [9] (ABL1(T315I)-phosphorylated); 0% in [10]; 62% in [11]. The remaining binding at 1 µM was found to be 14% in assay [12] and 100% in [13].

As to `CCNc1nc(Nc2ccc(C(=O)N3CCC(N4CCOCC4)CC3)cc2OC)nc2[nH]cc(C(F)(F)F)c12` [Example 104, (4-((4-(ethylamino)-5-(trifluoromethyl)-7H-pyrrolo[2,3-d]pyrimidine-2-yl)amino)-3-methoxyphenyl)(4-morpholinopiperidine-1-yl)methanone], the remaining binding at 1 µM in assay [1] was 71%; in assay [2] it was 100%; in [3], 16%; in assay [4] it was 39%; in [5] it was 100%; in assay [6], 65%. Moreover, the remaining binding at 1 µM in assay [7] came to 99%; in assay [8] it was 81%; in [9] (ABL1(T315I)-nonphosphorylated), 100%; in assay [9] (ABL1(T315I)-phosphorylated) it was 98%; in assay [10] it was 47%; in assay [11], 96%. Besides, the results for the remaining binding at 1 µM in [12] and in [13] were 90% and 92%, respectively.
